Among the data in ChEMBL document CHEMBL3351474, “Ambidalmines A-E and ambidimerine F: bioactive dihydrobenzophenanthridine alkaloids from Corydalis ambigua var. amurensis” (2014) are Activity values, retold here.

Assay type in all cases: functional
Assay [1] deals with H9c2. Kind of assay: Cytoprotective activity against ischemia-hypoxia injury in rat H9c2 cells assessed as increase in cell viability at 10 uM by MTT assay relative to control.
The subject of assay [2] is H9c2. Kind of assay: Cytoprotective activity against ischemia-hypoxia injury in rat H9c2 cells assessed as increase in cell viability at 0.01 uM by MTT assay relative to control.
For assay [3], the system named is H9c2. Kind of assay: Cytoprotective activity against ischemia-hypoxia injury in rat H9c2 cells assessed as increase in cell viability at 0.1 uM by MTT assay relative to control.
Assay [4] deals with H9c2. Kind of assay: Cytoprotective activity against ischemia-hypoxia injury in rat H9c2 cells assessed as increase in cell viability at 1 uM by MTT assay relative to control.

`COc1cc2c(OC)cc3c(c2cc1OC)N(C)[C@@H](CC(C)=O)c1c2c(cc(OC)c1-3)OCO2`: the Activity in assay [1] was 44.27%; in assay [2], 53.88%; in assay [3], 50.09%; in assay [4], 45.29%.

Consider `COc1cc2c(OC)cc3c(c2cc1OC)N(C)[C@H](CC(C)=O)c1c2c(cc(OC)c1-3)OCO2`, for which the Activity came out at 29.1% in assay [1], 42.15% in assay [2], 40.68% in assay [3] and 37.74% in assay [4].

Regarding `COc1cc2c(OC)cc3c(c2cc1OC)N(C)[C@@H](CO)c1c2c(cc(OC)c1-3)OCO2`, the Activity in assay [1] was 32.71%; in assay [2], 47.54%; in assay [3] it was 54.72%; in assay [4], 49.42%.

For `COc1cc2c(OC)cc3c(c2cc1OC)N(C)[C@H](CO)c1c2c(cc(OC)c1-3)OCO2`, the Activity is 36.62% in assay [1], 41.38% in assay [2], 46.01% in assay [3] and 50.74% in assay [4].

Consider `COc1cc2c(OC)cc3c(c2cc1OC)N(C)[C@@H](CC(=O)C[C@H]1c2c4c(cc(OC)c2-c2cc(OC)c5cc(OC)c(OC)cc5c2N1C)OCO4)c1c2c(cc(OC)c1-3)OCO2`, for which the Activity is given as 27.48% in assay [1], 40.26% in assay [2], 41.02% in assay [3] and 36.59% in assay [4].

On to `COc1cc2c(OC)cc3c(c2cc1OC)N(C)[C@H](CC(=O)C[C@H]1c2c4c(cc(OC)c2-c2cc(OC)c5cc(OC)c(OC)cc5c2N1C)OCO4)c1c2c(cc(OC)c1-3)OCO2`, for which the Activity in assay [1] is recorded as 44.75%; in assay [3] it was 50.56%; in assay [4], 44.26%.

On to `COc1cc2c(OC)cc3c(c2cc1OC)N(C)C(CC(=O)CC(C)(C)O)c1c2c(cc(OC)c1-3)OCO2` (racemic), for which the Activity in assay [1] amounted to 32.63%; in assay [2], 41.8%; in assay [3], 41.47%; in assay [4], 44.75%.
